Source: patent US20260078111A1, “CARBONIC ANHYDRASE ENZYME INHIBITORS AND METHODS OF USE THEREOF” (RUTGERS, THE STATE UNIVERSITY OF NEW JERSEY, priority 2022, published 2026)
Like-named read-outs stand apart in the source and are kept apart here.

Columns and labels:
[1] = test system: mast cell development from murine bone marrow cells; assay: In vitro mast cell development culture assay (IL-3, flow cytometry); assay type: cell-based, mice; conditions: for inhibition at 15 µM: read-out: POI (percent of inhibition based on MC numbers)
Protocol: To further test the ability of 4-(3-hydroxy-1-(4-methoxybenzyl)-2-oxoindolin-3-yl)benzenesulfonamide to inhibit mast cell development, an established mast cell culture assay was employed (Henry, E. K., et al., J Exp Med, 2016. 213(9): p. 1663-73). As a positive control for mast cell development, bone marrow cells were isolated from the femur of mice and cultured in the presence of 10 ng/mL of IL-3 and vehicle (1:10, DMSO/RPMI complete media) for seven days and mast cells were identified by flow cytometric analysis as (c-Kit+ FceRIa+ CD49b− cells).
In vitro Mast Cell development: Briefly, 1×10^6 bone marrow-resident progenitor cells were isolated from the femur of mice and cultured in complete media supplemented with 10 ng/mL of rIL-3 for a period of […]. Mast cells were identified by their expression of the surface molecules FcεRIα and c-Kit via flow cytometric analysis. In addition to IL-3, cultures were treated with vehicle or increasing concentrations of Car enzyme inhibitors at the indicated concentrations.

recombinant human Car1 = recombinant human Car1 (Homo sapiens, UniProt P00915); assay: Stopped-flow assay of Car1 enzyme inhibition (IC50); assay type: biochemical
Chain of recombinant human Car1 (P00915 whole entry): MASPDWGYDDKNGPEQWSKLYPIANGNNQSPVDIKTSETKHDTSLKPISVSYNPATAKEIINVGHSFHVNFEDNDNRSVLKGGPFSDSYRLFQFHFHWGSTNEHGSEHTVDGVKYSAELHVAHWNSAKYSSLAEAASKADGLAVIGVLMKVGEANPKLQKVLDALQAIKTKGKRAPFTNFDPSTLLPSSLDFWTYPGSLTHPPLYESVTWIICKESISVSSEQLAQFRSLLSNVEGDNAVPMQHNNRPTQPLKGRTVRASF
Protocol: Stopped-flow: IC50 values were established using an SX20 stopped-flow spectrometer from […]. In one syringe of the SX20, recombinant human Car1 was kept at a concentration of 9 μM in a sodium phosphate buffer and inhibitors were added to this solution at 0 nM, 10 nM, 20 nM, 80 nM and 100 nM. In a second syringe, a saturated CO2 solution was mixed with 0.2 mM phenol red. This series of dilutions allow for the evaluation of how quickly Car1 can metabolize the CO2 in the absence of an inhibitor and for the determination of whether that process is inhibited as increasing concentrations of compounds are added.

[2] = test system: intestinal mast cell responses; assay: Trichinella spiralis-induced mastocytosis model; assay type: in vivo; conditions: 2 mg/day i.p., T. spiralis-infected mice, day 10 post-infection
Text: To address this, a model of Trichinella spiralis-induced mastocytosis was employed and the capacity of MZ and 4-(3-hydroxy-1-(4-methoxybenzyl)-2-oxoindolin-3-yl)benzenesulfonamide to inhibit intestinal mast cell responses was directly compared (Henry, E. K., et al., J Exp Med, 2016. 213(9): p. 1663-73). Briefly, mice were infected with T. spiralis and treated with either vehicle, MZ or 4-(3-hydroxy-1-(4-methoxybenzyl)-2-oxoindolin-3-yl)benzenesulfonamide and intestinal mast cells were quantified via esterase staining and histological analysis (Henry, E. K., et al., J Exp Med, 2016. 213(9): p. 1663-73).
Trichinella spiralis infection: Mice were infected with 500 T. spiralis muscle stage larvae by oral gavage and were treated with vehicle (1:5, DMSO/PBS), 2 mg MZ, or 2 mg 4-(3-hydroxy-1-(4-methoxybenzyl)-2-oxoindolin-3-yl)benzenesulfonamide (CAR0037) i.p. daily; mice were sacrificed between on day 10-post infection and mast cell responses in the small intestine were evaluated by esterase staining as described previously (Henry, E. K., et al., J Exp Med, 2016. 213(9): p. 1663-73).

[3] = Mus musculus, Mast cell, Table 3, at 15 uM

SMILES: COc1ccc(CN2C(=O)C(O)(c3ccc(S(N)(=O)=O)cc3)c3ccccc32)cc1 (stereo not shown) [CAR0037, 4-(3-hydroxy-1-(4-methoxybenzyl)-2-oxoindolin-3-yl)benzenesulfonamide]
- inhibition of mast cell development compared to MZ ([1]; 10 uM, IL-3 10 ng/mL, seven days, versus 126.97 uM MZ): inhibited mast cell development as effectively as 126.97 uM of MZ
- IC50 (recombinant human Car1): 0.044 nM
- intestinal mast cell responses post-infection (esterase staining) [2]: significantly decreased intestinal mast cell numbers

SMILES: CC(=O)/N=c1/sc(S(N)(=O)=O)nn1C [MZ, methazolamide, reference compound]
- mast cell numbers ([1]; 30 μg/mL (126.97 uM), IL-3 10 ng/mL, seven days): significantly decreased mast cell numbers
- inhibition at 126 µM ([1]; Mus musculus, Mast cell, read-out: POI of control (percent of inhibition based on MC numbers)): 78 to 100%
- intestinal mast cell responses post-infection (esterase staining) [2]: no changes in mast cell responses

SMILES: NS(=O)(=O)c1ccc(C2(O)C(=O)N(Cc3ccc(F)c(F)c3)c3ccccc32)cc1 (stereo not shown) [NEM-9A, 4-[1-[(3,4-difluorophenyl)methyl]-3-hydroxy-2-oxo-indolin-3-yl]benzenesulfonamide]
- inhibition at 15 µM [1, 3]: 18%
- IC50 (recombinant human Car1): 51.3 nM

SMILES: NS(=O)(=O)c1ccc(C2(O)C(=O)N(Cc3cc[n+]([O-])cc3)c3ccccc32)cc1 (stereo not shown) [NEM-10A, 4-[3-hydroxy-1-[(1-oxidopyridin-1-ium-4-yl)methyl]-2-oxo-indolin-3-yl]benzenesulfonamide]
- inhibition at 15 µM [1, 3]: 11%
- IC50 (recombinant human Car1): 33.8 nM

SMILES: NS(=O)(=O)c1ccc(C2(O)C(=O)N(CC3CCOCC3)c3ccccc32)cc1 (stereo not shown) [NEM-12A, 4-[3-hydroxy-2-oxo-1-(tetrahydropyran-4-ylmethyl)indolin-3-yl]benzenesulfonamide]
- inhibition at 15 µM [1, 3]: 6%
- IC50 (recombinant human Car1): 62.5 nM

SMILES: NS(=O)(=O)c1ccc(C2(O)C(=O)N(Cc3ccc(N4CCOCC4)cc3)c3ccccc32)cc1 (stereo not shown) [NEM-14A, 4-[3-hydroxy-1-[(4-morpholinophenyl)methyl]-2-oxo-indolin-3-yl]benzenesulfonamide]
- inhibition of mast cell numbers (POI) compared to MZ at 126 uM ([1]; 10 uM): comparable inhibition of mast cell numbers with the control, MZ, at 126 uM
- inhibition of mast cell numbers (POI) compared to MZ at 126 uM ([1]; 15 uM): significantly higher inhibition than MZ at 126 uM
- inhibition at 15 µM [1, 3]: 98%
- IC50 (recombinant human Car1): 34 nM

SMILES: COc1ccc2c(N3C(=O)C(O)(c4ccc(S(N)(=O)=O)cc4)c4ccccc43)cccc2c1 (stereo not shown) [NEM-15A, 4-[3-hydroxy-1-(6-methoxy-1-naphthyl)-2-oxo-indolin-3-yl]benzenesulfonamide]
- inhibition of mast cell numbers (POI) compared to MZ at 126 uM ([1]; 10 uM): significantly higher inhibition of mast cell numbers than MZ at 126 uM
- inhibition of mast cell numbers (POI) compared to MZ at 126 uM ([1]; 15 uM): significantly higher inhibition of mast cell numbers than MZ at 126 uM
- inhibition at 15 µM [1, 3]: 100%
- IC50 (recombinant human Car1): 35.3 nM

SMILES: NS(=O)(=O)c1ccc(C2(O)C(=O)N(Cc3ccc(-c4ccncc4)cc3)c3ccccc32)cc1 (stereo not shown) [NEM-23A, 4-[3-hydroxy-2-oxo-1-[[4-(4-pyridyl)phenyl]methyl]indolin-3-yl]benzenesulfonamide]
- inhibition of mast cell numbers ([1]; 100 nM, titration, FIG. 3): inhibits mast cell numbers
- inhibition of mast cell numbers (POI) compared to MZ at 126 uM ([1]; 5 uM): comparable level than MZ at 126 uM
- inhibition of mast cell numbers (POI) compared to MZ at 126 uM ([1]; 10 uM): comparable level than MZ at 126 uM
- inhibition of mast cell numbers (POI) compared to MZ at 126 uM ([1]; 15 uM): comparable level than MZ at 126 uM
- inhibition at 0.25 µM ([1]; Mus musculus, Mast cell, 250 nM, titration, FIG. 3, read-out: inhibition of mast cell numbers): ~50%
- inhibition at 15 µM [1, 3]: 99%
- IC50 (recombinant human Car1): 77 nM

SMILES: NS(=O)(=O)c1ccc(C2(O)C(=O)N(Cc3ccc(N4CCCC4)cc3)c3ccccc32)cc1 (stereo not shown) [NEM-24A, 4-[3-hydroxy-2-oxo-1-[(4-pyrrolidin-1-ylphenyl)methyl]indolin-3-yl]benzenesulfonamide]
- inhibition at 15 µM [1, 3]: 99%
- IC50 (recombinant human Car1): 44.3 nM

SMILES: NS(=O)(=O)c1ccc(C2(O)C(=O)N(c3cccc4cc(Cl)ccc34)c3ccccc32)cc1 (stereo not shown) [NEM-35A, 4-[1-(6-chloro-1-naphthyl)-3-hydroxy-2-oxo-indolin-3-yl]benzenesulfonamide]
- inhibition at 15 µM ([1]; Mus musculus, Mast cell): 99%

SMILES: NS(=O)(=O)c1ccc(C2(O)C(=O)N(c3cccc4cc(N5CCOCC5)ccc34)c3ccccc32)cc1 (stereo not shown) [NEM-36A, 4-[3-hydroxy-1-(6-morpholino-1-naphthyl)-2-oxo-indolin-3-yl]benzenesulfonamide]
- inhibition at 15 µM ([1]; Mus musculus, Mast cell): 91%

SMILES: NS(=O)(=O)c1ccc(C2(O)C(=O)N(c3cccc4cc5c(cc34)OCO5)c3ccccc32)cc1 (stereo not shown) [NEM-37A, 4-(1-benzo[f][1,3]benzodioxol-5-yl-3-hydroxy-2-oxo-indolin-3-yl)benzenesulfonamide]
- inhibition at 15 µM [1, 3]: 100%
- IC50 (recombinant human Car1): 5.3 nM

SMILES: NS(=O)(=O)c1ccc(C2(O)C(=O)N(c3cccc4cnccc34)c3ccccc32)cc1 (stereo not shown) [NEM-38A, 4-[3-hydroxy-1-(5-isoquinolyl)-2-oxo-indolin-3-yl]benzenesulfonamide]
- inhibition at 15 µM ([1]; Mus musculus, Mast cell): 63%

SMILES: NS(=O)(=O)c1ccc(C2(O)C(=O)N(Cc3ccc4c(c3)OCO4)c3ccccc32)cc1 (stereo not shown) [NEM-41A, 4-[1-(1,3-benzodioxol-5-ylmethyl)-3-hydroxy-2-oxo-indolin-3-yl]benzenesulfonamide]
- inhibition at 15 µM ([1]; Mus musculus, Mast cell): 64%

SMILES: NS(=O)(=O)c1ccc(C2(O)C(=O)N(Cc3ccc(-c4ccnc(C(F)(F)F)c4)cc3)c3ccccc32)cc1 (stereo not shown) [NEM-45A, 4-[3-hydroxy-2-oxo-1-[[4-[2-(trifluoromethyl)-4-pyridyl]phenyl]methyl]indolin-3-yl]benzenesulfonamide]
- inhibition at 15 µM ([1]; Mus musculus, Mast cell): 100%

SMILES: COc1ccc(CN2C(=O)C(O)(c3ccc(S(N)(=O)=O)cc3)c3ccccc32)cc1 (stereo not shown) [drawing 86]
- Percent Inhibition at 10 μm ([1]; 10 μm, in vitro mast cell cultures): 91%
